The values below come from ChEMBL document CHEMBL1145379 (J Med Chem, 2007).

In one assay the test system is Plasma. Briefly: Anticoagulant potency in human plasma assessed as concentration for doubling of prothrombin time. The format is functional.
The next assay concerns the target Prothrombin (Homo sapiens, UniProt P00734). Briefly: Inhibition of human F2a. Particulars: read-out: Ki app.
For a further assay, the target named is Coagulation factor X (Homo sapiens, UniProt P00742). Briefly: Inhibition of human F10a. Particulars: read-out: Ki app.
Chain of Coagulation factor X (P00742 41-179 limits assumed): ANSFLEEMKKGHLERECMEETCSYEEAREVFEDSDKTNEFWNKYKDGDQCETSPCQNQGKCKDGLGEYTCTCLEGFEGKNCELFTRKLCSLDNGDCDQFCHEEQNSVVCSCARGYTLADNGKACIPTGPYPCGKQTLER
Chain of Coagulation factor X (P00742 235-488 limits assumed): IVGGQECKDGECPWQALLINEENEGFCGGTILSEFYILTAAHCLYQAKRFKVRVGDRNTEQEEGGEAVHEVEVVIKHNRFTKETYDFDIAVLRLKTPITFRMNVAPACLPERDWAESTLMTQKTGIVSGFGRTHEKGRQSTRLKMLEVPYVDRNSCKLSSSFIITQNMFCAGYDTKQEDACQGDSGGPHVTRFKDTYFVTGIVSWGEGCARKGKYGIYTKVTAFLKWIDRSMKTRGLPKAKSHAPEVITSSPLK

As for `COc1cc(Cl)cc(C(=O)Nc2ccc(Cl)cn2)c1NC(=O)c1scc(CN(C)S(C)(=O)=O)c1Cl`, the Activity with Plasma was found to be 2.2 µM. Further, the Ki worked out at 340 nM on Prothrombin and 0.045 nM at Coagulation factor X.
In the same order, the values of `COc1cc(Cl)cc(C(=O)Nc2ccc(Cl)cn2)c1NC(=O)c1scc(CN(C)C(C)=N)c1Cl` are 0.25 µM, 920 nM and ≤ 0.01 nM.
Take `COc1cc(Cl)cc(C(=O)Nc2ccc(Cl)cn2)c1NC(=O)c1scc(CNC(C)C)c1Cl`: the Ki is 5400 nM on Prothrombin and 1.4 nM at Coagulation factor X.
As to `CCN(C)Cc1csc(C(=O)Nc2c(OC)cc(Cl)cc2C(=O)Nc2ccc(Cl)cn2)c1Cl`, the Activity in the assay with Plasma was 1.4 µM. In addition, the Ki is 1700 nM at Prothrombin and 0.22 nM at Coagulation factor X.
In the same order, the values of `COc1cc(Cl)cc(C(=O)Nc2ccc(Cl)cn2)c1NC(=O)c1scc(CN(C)C(=O)NCCO)c1Cl` are 4.1 µM, 360 nM and 0.05 nM.
For `COc1cc(Cl)cc(C(=O)Nc2ccc(Cl)cn2)c1NC(=O)c1scc(CN2CCN=C2C)c1Cl`, the Activity with Plasma amounted to 0.32 µM. In addition, the Ki was 3300 nM at Prothrombin and ≤ 0.01 nM at Coagulation factor X.
In the same order, the values of `COc1cc(Cl)cc(C(=O)Nc2ccc(Cl)cn2)c1NC(=O)c1scc(Cn2ccnc2NC(C)C)c1Cl` are 2.3 µM, 1200 nM and 0.008 nM.
In the same order, the values of `CCNC(=O)N(C)Cc1csc(C(=O)Nc2c(OC)cc(Cl)cc2C(=O)Nc2ccc(Cl)cn2)c1Cl` are 5.8 µM, 450 nM and 0.02 nM.
For `COc1cc(Cl)cc(C(=O)Nc2ccc(Cl)cn2)c1NC(=O)c1scc(CN(C)C(=N)N)c1Cl`, in that order: 0.4 µM, 630 nM and ≤ 0.01 nM.
For the compound `COc1cc(Cl)cc(C(=O)Nc2ccc(Cl)cn2)c1NC(=O)c1scc(CN(C)C(=O)NCCC(=O)O)c1Cl`, the Activity in the assay on Plasma came to 7 µM. Also, the Ki stood at 630 nM on Prothrombin and 0.022 nM at Coagulation factor X.
As to `COc1cc(Cl)cc(C(=O)Nc2ccc(Cl)cn2)c1NC(=O)c1scc(CN(C)C2=NCCS2)c1Cl`, the Activity in the assay with Plasma was 1.8 µM. The Ki came out at 100 nM on Prothrombin and 0.024 nM at Coagulation factor X.
Regarding `COc1cc(Cl)cc(C(=O)Nc2ccc(Cl)cn2)c1NC(=O)c1scc(CN(C2=NCCO2)C(C)(C)C)c1Cl`, the Ki came out at 1700 nM at Prothrombin and 0.12 nM at Coagulation factor X.
As for `COc1cc(Cl)cc(C(=O)Nc2ccc(Cl)cn2)c1NC(=O)c1scc(CN2CCCC2)c1Cl`, the Activity with Plasma was found to be 1.6 µM. Further, the Ki at Prothrombin was 1400 nM; at Coagulation factor X, 0.52 nM.
For the compound `COc1cc(Cl)cc(C(=O)Nc2ccc(Cl)cn2)c1NC(=O)c1scc(CN2CCNC2=N)c1Cl`, the Activity in the assay with Plasma was determined as 0.27 µM. The results for the Ki on Prothrombin and on Coagulation factor X were 1500 nM and ≤ 0.01 nM, respectively.
Regarding `COc1cc(Cl)cc(C(=O)Nc2ccc(Cl)cn2)c1NC(=O)c1scc(Cn2ccnc2N)c1Cl`, the Activity in the assay with Plasma worked out at 0.77 µM. Also, the Ki on Prothrombin worked out at 3500 nM; at Coagulation factor X it was 0.006 nM.
In the same order, the values of `COc1cc(Cl)cc(C(=O)Nc2ccc(Cl)cn2)c1NC(=O)c1scc(CN(C)CCCO)c1Cl` are 1.5 µM, 1100 nM and 0.18 nM.
For `COc1cc(Cl)cc(C(=O)Nc2ccc(Cl)cn2)c1NC(=O)c1scc(CN(C)C(=O)NCCN2CCCC2)c1Cl`, in that order: 1.1 µM, 140 nM and 0.036 nM.
As to `COc1cc(Cl)cc(C(=O)Nc2ccc(Cl)cn2)c1NC(=O)c1scc(CN(C)C2=NCCC2)c1Cl`, in the assay on Plasma, the Activity came out at 0.4 µM. The Ki at Prothrombin was determined as 970 nM; on Coagulation factor X, 0.004 nM.
Consider `COCCN(Cc1csc(C(=O)Nc2c(OC)cc(Cl)cc2C(=O)Nc2ccc(Cl)cn2)c1Cl)C1=NCCO1`, for which the Activity in the assay on Plasma was found to be 1.1 µM. Besides, the figures for the Ki at Prothrombin and on Coagulation factor X were 2000 nM and 0.26 nM, respectively.
For `COc1cc(Cl)cc(C(=O)Nc2ccc(Cl)cc2)c1NC(=O)c1scc(CN2CCN(C)CC2)c1Cl`, in that order: 4.2 µM, 1300 nM and 0.43 nM.
Consider `COc1cc(Cl)cc(C(=O)Nc2ccc(Cl)cn2)c1NC(=O)c1scc(CN(CC(F)(F)F)C2=NCCO2)c1Cl`, for which the Activity in the assay with Plasma was 28 µM. In addition, the Ki on Prothrombin was > 5000 nM; on Coagulation factor X it was 2.2 nM.
For the compound `CCN(Cc1csc(C(=O)Nc2c(OC)cc(Cl)cc2C(=O)Nc2ccc(Cl)cn2)c1Cl)C1=NCCO1`, the Activity in the assay with Plasma amounted to 0.57 µM. The Ki is 470 nM at Prothrombin and 0.012 nM on Coagulation factor X.
Take `COc1cc(Cl)cc(C(=O)Nc2ccc(Cl)cn2)c1NC(=O)c1scc(CN(C)c2ncc[nH]2)c1Cl`: the Activity in the assay on Plasma turned out to be 1.8 µM. Further, the Ki at Prothrombin is 860 nM; on Coagulation factor X it was 0.02 nM.
For `CCN(CC)Cc1csc(C(=O)Nc2c(OC)cc(Cl)cc2C(=O)Nc2ccc(Cl)cn2)c1Cl`, the Activity with Plasma was 2.4 µM. The Ki on Prothrombin turned out to be 1500 nM; at Coagulation factor X, 0.32 nM.
On to `COc1cc(Cl)cc(C(=O)Nc2ccc(Cl)cn2)c1NC(=O)c1scc(CN2CCSC2=N)c1Cl`, for which the Activity in the assay with Plasma worked out at 1.4 µM. For the same compound, the Ki is 2600 nM at Prothrombin and ≤ 0.01 nM at Coagulation factor X.
In the same order, the values of `COc1cc(Cl)cc(C(=O)Nc2ccc(Cl)cn2)c1NC(=O)c1scc(Cn2ccnc2)c1Cl` are 2 µM, 510 nM and 0.022 nM.
`COc1cc(Cl)cc(C(=O)Nc2ccc(Cl)cn2)c1NC(=O)c1scc(CN(C)CC(C)O)c1Cl` (centres undefined): in the assay on Plasma, the Activity is 1.5 µM. Besides, the results for the Ki on Prothrombin and at Coagulation factor X were 2100 nM and 0.4 nM, respectively.
As for `COc1cc(Cl)cc(C(=O)Nc2ccc(Cl)cn2)c1NC(=O)c1scc(CN2CCC(O)CC2)c1Cl`, in the assay on Plasma, the Activity came out at 3.2 µM. The Ki is 770 nM at Prothrombin and 2.2 nM on Coagulation factor X.
Turning to `CCN(Cc1csc(C(=O)Nc2c(OC)cc(Cl)cc2C(=O)Nc2ccc(Cl)cn2)c1Cl)C1=NC(C)CO1` (centres undefined), in the assay with Plasma, the Activity worked out at 3.8 µM. Moreover, the Ki was determined as 580 nM at Prothrombin and 0.031 nM at Coagulation factor X.
For `CCNc1nccn1Cc1csc(C(=O)Nc2c(OC)cc(Cl)cc2C(=O)Nc2ccc(Cl)cn2)c1Cl`, in that order: 1.8 µM, 1100 nM and 0.005 nM.
In the same order, the values of `COc1cc(Cl)cc(C(=O)Nc2ccc(Cl)cn2)c1NC(=O)c1scc(CN(C)CC(O)CO)c1Cl` (centres undefined) are 3.2 µM, 1200 nM and 0.26 nM.
For `COc1cc(Cl)cc(C(=O)Nc2ccc(Cl)cn2)c1NC(=O)c1scc(CN2CCOC2=N)c1Cl`, in that order: 0.26 µM, 1100 nM and ≤ 0.01 nM.
Regarding `COc1cc(Cl)cc(C(=O)Nc2ccc(Cl)cn2)c1NC(=O)c1scc(CN)c1Cl`, the Activity in the assay on Plasma stood at 4.2 µM. Moreover, the results for the Ki at Prothrombin and at Coagulation factor X were > 5000 nM and 1 nM, respectively.
Take `COc1cc(Cl)cc(C(=O)Nc2ccc(Cl)cn2)c1NC(=O)c1scc(CN(C)CC(C)(C)O)c1Cl`: the Activity with Plasma was determined as 5.3 µM. For the same compound, the values for the Ki at Prothrombin and at Coagulation factor X were 1100 nM and 0.71 nM, respectively.
For `COc1cc(Cl)cc(C(=O)Nc2ccc(Cl)cn2)c1NC(=O)c1scc(CN(C)C2=NC(=O)CO2)c1Cl`, in that order: 2.2 µM, 90 nM and 0.026 nM.
In the same order, the values of `COc1cc(Cl)cc(C(=O)Nc2ccc(Cl)cn2)c1NC(=O)c1scc(Cn2ccnc2C)c1Cl` are 1.4 µM, 440 nM and ≤ 0.01 nM.
In the same order, the values of `COc1cc(Cl)cc(C(=O)Nc2ccc(Cl)cn2)c1NC(=O)c1scc(CN(C)CCCN(C)C)c1Cl` are 0.24 µM, 300 nM and 0.024 nM.
For `COc1cc(Cl)cc(C(=O)Nc2ccc(Cl)cn2)c1NC(=O)c1scc(CN(C)C2=NCC(C)O2)c1Cl` (centres undefined), in the assay with Plasma, the Activity was determined as 1.2 µM. Besides, the figures for the Ki at Prothrombin and on Coagulation factor X were 410 nM and 0.12 nM, respectively.
For `COc1cc(Cl)cc(C(=O)Nc2ccc(Cl)cn2)c1NC(=O)c1scc(CN(C)C2=NCCCO2)c1Cl`, in that order: 0.22 µM, 160 nM and 0.012 nM.
In the same order, the values of `COc1cc(Cl)cc(C(=O)Nc2ccc(Cl)cn2)c1NC(=O)c1scc(CN(C)c2ncco2)c1Cl` are 4.2 µM, 60 nM and 0.059 nM.
In the case of `COc1cc(Cl)cc(C(=O)Nc2ccc(Cl)cn2)c1NC(=O)c1scc(CN2C=NCC2)c1Cl`, the Activity with Plasma was determined as 0.26 µM. Further, the results for the Ki on Prothrombin and on Coagulation factor X were 3300 nM and 0.004 nM, respectively.
In the same order, the values of `COc1cc(Cl)cc(C(=O)Nc2ccc(Cl)cn2)c1NC(=O)c1scc(CN(C)C(N)=O)c1Cl` are 2.6 µM, 340 nM and 0.026 nM.
For `COc1cc(Cl)cc(C(=O)Nc2ccc(Cl)cn2)c1NC(=O)c1scc(CN(C)CCN2CCCC2)c1Cl`, in that order: 0.24 µM, 190 nM and 0.019 nM.
For the compound `COc1cc(Cl)cc(C(=O)Nc2ccc(Cl)cn2)c1NC(=O)c1scc(CN2CC(=O)NC2=N)c1Cl`, the Activity in the assay with Plasma came out at 3.3 µM. Besides, the values for the Ki on Prothrombin and on Coagulation factor X were 340 nM and 0.034 nM, respectively.
In the same order, the values of `COc1cc(Cl)cc(C(=O)Nc2ccc(Cl)cn2)c1NC(=O)c1scc(CN2CCOCC2)c1Cl` are 4.9 µM, 1400 nM and 1.4 nM.
For the compound `CCNCc1csc(C(=O)Nc2c(OC)cc(Cl)cc2C(=O)Nc2ccc(Cl)cn2)c1Cl`, the Activity in the assay on Plasma came to 2.2 µM. In addition, the Ki on Prothrombin was determined as 2600 nM; on Coagulation factor X it was 0.4 nM.
`COc1cc(Cl)cc(C(=O)Nc2ccc(Cl)cn2)c1NC(=O)c1scc(CN2CCN=C2SC)c1Cl`: the Activity with Plasma stood at 0.53 µM. Moreover, the Ki on Prothrombin is 2200 nM; on Coagulation factor X, 0.004 nM.
